In US20090221642A1, “MUSCARINIC RECEPTOR AGONISTS, COMPOSITIONS, METHODS OF TREATMENT THEREOF, AND PROCESSES FOR PREPARATION THEREOF-176” (AstraZeneca AB, priority 2008, published 2009):

Biological target: T1, hM1 (human Muscarinic receptor subtype 1) (Homo sapiens, UniProt P11229)
T1 construct: expressed in transfected cells; host or cells: CHO cells (Chinese hamster ovary cells, ATCC)
T1 sequence (P11229 1-460): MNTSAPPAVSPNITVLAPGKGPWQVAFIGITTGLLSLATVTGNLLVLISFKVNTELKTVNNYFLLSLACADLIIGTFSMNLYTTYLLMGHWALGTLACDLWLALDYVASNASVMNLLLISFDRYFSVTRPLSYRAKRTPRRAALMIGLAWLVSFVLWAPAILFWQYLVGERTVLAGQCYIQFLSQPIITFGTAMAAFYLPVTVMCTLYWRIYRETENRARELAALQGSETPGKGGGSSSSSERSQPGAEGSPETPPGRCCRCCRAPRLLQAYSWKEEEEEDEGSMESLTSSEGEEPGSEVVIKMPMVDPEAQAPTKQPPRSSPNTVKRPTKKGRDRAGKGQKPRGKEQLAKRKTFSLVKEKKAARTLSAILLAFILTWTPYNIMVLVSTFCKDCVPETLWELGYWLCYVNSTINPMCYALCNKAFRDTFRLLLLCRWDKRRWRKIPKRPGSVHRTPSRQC
Test: Human M1 calcium mobilization FLIPR assay
Assay type: cell-based
Details: hM1 expressed in CHO cells, intracellular Ca2+ release, read-out: hM1 EC50
Procedure: Human M1, rat M1, human M3 and human M5 Calcium Mobilization FLIPR™ Assay
The compound activity in the present invention (EC50 or IC50) is measured using a 384 plate-based imaging assay that monitors drug induced intracellular Ca^2+ release in whole cells. Activation of hM1 (human Muscarinic receptor subtype 1, gene bank access NM_000738), rM1 (rat Muscarinic receptor subtype 1, gene bank access NM_080773), hM3 (human Muscarinic receptor subtype 3, gene bank access NM_000740NM_000740) and hM5 (human Muscarinic receptor subtype 5, gene bank access NM_0121258), receptors expressed in CHO cells (Chinese hamster ovary cells, ATCC) is quantified in a Molecular Devices FLIPR II™ instrument as an increase in fluorescent signal. Inhibition of hM3 and hM5 by compounds is determined by the decrease in fluorescent signal in response to 2 nM acetylcholine activation.
Prior to experiment, the cell culture medium is removed from the plates by inversion. […] Plates are incubated at 37° C. for 60 minutes prior to start the experiment. The incubation is terminated by washing the cells four times in assay buffer, leaving a residual 25 μl buffer per well. Cell plates are then transferred to the FLIPR, ready for compound additions.
The day of experiment, acetylcholine and compounds are diluted in assay buffer in three-fold concentration range (10 points serial dilution) for addition by FLIPR instrument. For all calcium assays, a baseline reading is taken for 10 seconds followed by the addition of 12.5 μl of compounds, resulting in a total well volume of 37.5 μl. Data is collected every second for 60 pictures and then every 6 seconds for 20 pictures prior to the addition of agonist. For hM3 and hM5, before agonist addition, a second baseline reading is taken for 10 seconds followed by the addition of 12.5 μl of agonist or buffer, producing a final volume of 50 μl. After agonist stimulation, the FLIPR continues to collect data every second for 60 pictures and then every 6 seconds for 20 pictures. The fluorescence emission is read using filter 1 (emission 510-570 nm) by the FLIPR on board CCD camera.
Calcium mobilization output data are calculated as the maximal relative fluorescence unit (RFU) minus the minimal value for both compound and agonist reading frame (except for hM1 and rM1 using only the maximal RFU). Data are analyzed using sigmoidal fits of a non-linear curve-fitting program (XLfit version 4.2.2 Excel add-in version 4.2.2 build 18 math 1Q version 2.1.2 build 18). All pEC50 and plC50 values are reported as arithmetic means ±standard error of mean of ‘n’ independent experiments.

Compound | EC50 [nM]
COC(=O)N1CCC(C)(N2CCC(n3c(=O)[nH]c4ccccc43)CC2)C1 (racemic) [Example 2, methyl 3-methyl-3-(4-(2-oxo-2,3-dihydro-1H-benzo[d]imidazol-1-yl)piperidin-1-yl)pyrrolidine-1-carboxylate] | 13
CCOC(=O)N1CCC(C)(N2CCC(n3c(=O)[nH]c4cc(F)ccc43)CC2)C1 (single isomer, unassigned) [Example 6, ethyl 3-(4-(5-fluoro-2-oxo-2,3-dihydro-1H-benzo[d]imidazol-1-yl)piperidin-1-yl)-3-methylpyrrolidine-1-carboxylate] | < 1.4
CCOC(=O)N1CCC(C)(N2CCC(n3c(=O)[nH]c4cc(C)ccc43)CC2)C1 (single isomer, unassigned) [Example 12, ethyl 3-methyl-3-(4-(5-methyl-2-oxo-2,3-dihydro-1H-benzo[d]imidazol-1-yl)piperidin-1-yl)pyrrolidine-1-carboxylate] | 10.1
Cc1ccc2c(c1)[nH]c(=O)n2C1CCN(C2(C)CCN(C(=O)OC(C)C)C2)CC1 (single isomer, unassigned) [Example 14, isopropyl 3-methyl-3-(4-(5-methyl-2-oxo-2,3-dihydro-1H-benzo[d]imidazol-1-yl)piperidin-1-yl)pyrrolidine-1-carboxylate] | 48.3
CC#CCOC(=O)N1CCC(C)(N2CCC(n3c(=O)[nH]c4cc(C)ccc43)CC2)C1 (single isomer, unassigned) [Example 21, but-2-ynyl 3-methyl-3-(4-(5-methyl-2-oxo-2,3-dihydro-1H-benzo[d]imidazol-1-yl)piperidin-1-yl)pyrrolidine-1-carboxylate] | 12.5
CC#CCOC(=O)N1CCC(C)(N2CCC(n3c(=O)[nH]c4cc(F)ccc43)CC2)C1 (single isomer, unassigned) [Example 22, but-2-ynyl 3-(4-(5-fluoro-2-oxo-2,3-dihydro-1H-benzo[d]imidazol-1-yl)piperidin-1-yl)-3-methylpyrrolidine-1-carboxylate] | 2.8
COC(=O)N1CCC(C)(N2CCC(n3c(=O)[nH]c4cc(F)ccc43)CC2)C1 (single isomer, unassigned) [Example 23, methyl 3-(4-(5-fluoro-2-oxo-2,3-dihydro-1H-benzo[d]imidazol-1-yl)piperidin-1-yl)-3-methylpyrrolidine-1-carboxylate] | 9.4
C#CCOC(=O)N1CCC(C)(N2CCC(n3c(=O)[nH]c4cc(F)ccc43)CC2)C1 (single isomer, unassigned) [Example 25, prop-2-ynyl 3-(4-(5-fluoro-2-oxo-2,3-dihydro-1H-benzo[d]imidazol-1-yl)piperidin-1-yl)-3-methylpyrrolidine-1-carboxylate] | 1.8
Cc1ccc2[nH]c(=O)n(C3CCN(C4(C)CCN(C(=O)OCCF)C4)CC3)c2c1 (single isomer, unassigned) [Example 26, 2-fluoroethyl 3-methyl-3-(4-(6-methyl-2-oxo-2,3-dihydro-1H-benzo[d]imidazol-1-yl)piperidin-1-yl)pyrrolidine-1-carboxylate] | 7.8
Cc1ccc2c(c1)[nH]c(=O)n2C1CCN(C2(C)CCN(C(=O)OCCF)C2)CC1 (single isomer, unassigned) [Example 27, 2-fluoroethyl 3-methyl-3-(4-(5-methyl-2-oxo-2,3-dihydro-1H-benzo[d]imidazol-1-yl)piperidin-1-yl)pyrrolidine-1-carboxylate] | 10.8
CC1(N2CCC(n3c(=O)[nH]c4ccccc43)CC2)CCN(C(=O)OCCF)C1 (single isomer, unassigned) [Example 31, 2-fluoroethyl 3-methyl-3-(4-(2-oxo-2,3-dihydro-1H-benzo[d]imidazol-1-yl)piperidin-1-yl)pyrrolidine-1-carboxylate] | 13.1
CC1(N2CCC(n3c(=O)[nH]c4ccccc43)CC2)CCN(C(=O)OCCF)C1 (single isomer, unassigned) [Example 32, 2-fluoroethyl 3-methyl-3-(4-(2-oxo-2,3-dihydro-1H-benzo[d]imidazol-1-yl)piperidin-1-yl)pyrrolidine-1-carboxylate] | 52.1
CC#CCOC(=O)N1CCC(C)(N2CCC(n3c(=O)[nH]c4ccccc43)CC2)C1 (single isomer, unassigned) [Example 33, but-2-ynyl 3-methyl-3-(4-(2-oxo-2,3-dihydro-1H-benzo[d]imidazol-1-yl)piperidin-1-yl)pyrrolidine-1-carboxylate] | 1.7
CC#CCOC(=O)N1CCC(C)(N2CCC(n3c(=O)[nH]c4ccccc43)CC2)C1 (single isomer, unassigned) [Example 34, but-2-ynyl 3-methyl-3-(4-(2-oxo-2,3-dihydro-1H-benzo[d]imidazol-1-yl)piperidin-1-yl)pyrrolidine-1-carboxylate] | 14.7
C#CCOC(=O)N1CCC(C)(N2CCC(n3c(=O)[nH]c4cc(F)ccc43)CC2)C1 (single isomer, unassigned) [Example 36, prop-2-ynyl 3-(4-(5-fluoro-2-oxo-2,3-dihydro-1H-benzo[d]imidazol-1-yl)piperidin-1-yl)-3-methylpyrrolidine-1-carboxylate] | 32
Cc1ccc2[nH]c(=O)n(C3CCN(C4(C)CCN(C(=O)OC(C)C)C4)CC3)c2c1 (single isomer, unassigned) [Example 39, isopropyl 3-methyl-3-(4-(6-methyl-2-oxo-2,3-dihydro-1H-benzo[d]imidazol-1-yl)piperidin-1-yl)pyrrolidine-1-carboxylate] | 26.7
Cc1ccc2[nH]c(=O)n(C3CCN(C4(C)CCN(C(=O)OC(C)C)C4)CC3)c2c1 (single isomer, unassigned) [Example 40, isopropyl 3-methyl-3-(4-(6-methyl-2-oxo-2,3-dihydro-1H-benzo[d]imidazol-1-yl)piperidin-1-yl)pyrrolidine-1-carboxylate] | 36.3
C#CCOC(=O)N1CCC(C)(N2CCC(n3c(=O)[nH]c4cc(C)ccc43)CC2)C1 (single isomer, unassigned) [Example 44, prop-2-ynyl 3-methyl-3-(4-(5-methyl-2-oxo-2,3-dihydro-1H-benzo[d]imidazol-1-yl)piperidin-1-yl)pyrrolidine-1-carboxylate] | < 2.3
COC(=O)N1CCC(C)(N2CCC(n3c(=O)[nH]c4ccc(C)cc43)CC2)C1 (single isomer, unassigned) [Example 47, methyl 3-methyl-3-(4-(6-methyl-2-oxo-2,3-dihydro-1H-benzo[d]imidazol-1-yl)piperidin-1-yl)pyrrolidine-1-carboxylate] | < 3.2
CCOC(=O)N1CCC(C)(N2CCC(N3C(=O)Cc4ccc(C)cc43)CC2)C1 (single isomer, unassigned) [Example 70, ethyl 3-methyl-3-(4-(6-methyl-2-oxoindolin-1-yl)piperidin-1-yl)pyrrolidine-1-carboxylate] | 9.8
COC(=O)N1CCC(C)(N2CCC(N3C(=O)Cc4ccc(F)cc43)CC2)C1 (single isomer, unassigned) [Example 76, methyl 3-(4-(6-fluoro-2-oxoindolin-1-yl)piperidin-1-yl)-3-methylpyrrolidine-1-carboxylate] | 40.1
CCOC(=O)N1CCC(C)(N2CCC(N3C(=O)Cc4cc(F)ccc43)CC2)C1 (single isomer, unassigned) [Example 80, ethyl 3-(4-(5-fluoro-2-oxoindolin-1-yl)piperidin-1-yl)-3-methylpyrrolidine-1-carboxylate] | 69.4
CCOC(=O)N1CCC(C)(N2CCC(N3C(=O)Cc4cc(F)c(C)cc43)CC2)C1 (single isomer, unassigned) [Example 82, ethyl 3-(4-(5-fluoro-6-methyl-2-oxoindolin-1-yl)piperidin-1-yl)-3-methylpyrrolidine-1-carboxylate] | 8.7
